What is called viability, T/C is the ratio of treated to control. In general, IC50 refers to the concentration that gives 50% inhibition.

Our source for the viability, T/C and IC50 values is PubChem BioAssay AID1963433 (Molecular Pharmacology Branch, DTP, NCI, 2024).

Where “and” joins values, the source holds several entries; their conditions need not be identical. Equal entries are not always repeated.

This assay has as its system 772245-204-R-J1-PDC complex spheroid growth. Description: Anticancer human tumor 772245-204-R-J1-PDC patient-derived rhabdomyosarcoma cell line growth inhibition [Asc]. Conditions: for viability, T/C: stronger effect = lower value. As to the method:
Multicellular complex tumor spheroid response to apoptosis pathway targeting inhibitors Alrizomadlin, Pelcitoclax, and Dasminapant in combination with a variety of drugs and investigational agents in selected tumor cell lines
The MDM2 inhibitor alrizomadlin, the Bcl-2/Bcl-xL inhibitor pelcitoclax, and the IAPs inhibitor dasminapant were evaluated both individually and in combination with standard of care and investigational anticancer small molecules within a complex spheroid model of solid tumors. . Complex spheroids include a stromal component modeled by human endothelial cells (HUVEC) and fibroblasts modeled by human mesenchymal stem cells (MSCs). The concentration ranges selected for each drug and investigational agent were based upon clinically achievable concentrations if the clinical Cmax of the agent was known.
Compounds. The drugs and investigational agents: alrizomadlin (APG-115; NSC831270), pelcitoclax (APG-1252; NSC835773), dasminapant (APG-1387;NSC834197), TAK-243 (NSC785004), copanlisib (NSC809693), olaparib (NSC753686), talazoparib (NSC767125), cobimetinib (NSC 768068), eltanexor (KPT-8602, NSC 794443), abemaciclib (NSC 768073), sotorasib (NSC818433), adagrasib (NSC 831453), MRTX-1133 (NSC 836407), Iadademestat (ORY1001, NSC 806812), and RMC-4630 (NSC839698), were obtained from the NCI Developmental Therapeutics Program Chemical Repository. The FDA-approved anticancer drug set is available from the Developmental Therapeutics Program at https://dtp.cancer.gov/organization/dscb/obtaining/available plates.htm. […] The stock solutions were prepared in dimethyl sulfoxide (DMSO, Sigma-Aldrich, St. Louis, MO, cat. D2650) at 800-fold the tested concentration and stored at -70 degrees C prior to their use. All drugs and investigational agents were tested over a range starting from a high concentration at or near the clinical Cmax and decreasing in half-log increments. If the clinical Cmax for an agent had not been determined, the highest concentration tested was 10 microM.
The patient-derived cancer (PDC) cell lines include five colon adenocarcinomas: 186277-243-T-J2-PDC, 616215-338-R-J1-PDC, 439559-082-T-J2-PDC, 463943-066-T-J2-PDC, and 519858-162-T-J1-PDC; three pancreatic carcinomas: 323965-272-R-J2-PDC, 521955-158-R6-J3-PDC, and 521955-158-R2-J5-PDC; two uterine sarcomas: 327498-152-R-J2-PDC and 993429-296-R-J1-PDC; two rhabdomyosarcomas: 755483-174-R-J1-PDC and 772245-204-R-J1-PDC; two soft tissue sarcomas: 126254-015-R-J1-PDC and 494315-158-R-J1-PDC; two malignant fibrous histiocytomas: 317291-083-R-J1-PDC and 596521-263-R-J1-PDC; two breast carcinomas: 171881-019-R-J1-PDC and 885512-296-R-J2-PDC; and one ovarian carcinoma: 6556581-035-R-J-PDC were obtained from the NCI PDMR, (https://pdmr.cancer.gov). The established cell lines HSSY-2 synovial sarcoma (RRID:CVCL 8719), SYO-1 synovial sarcoma (RRID:CVCL_7146), MPNST malignant peripheral neural sheath tumor were obtained from the Sloan Kettering Institute. The following established cell lines were purchased from the American Type Culture Collection (ATCC, Manassas, VA), Sor the received from the NCI repository:, PANC-1 pancreatic carcinoma (CRL-1469, RRID:CVCL_0480), OVCAR-5 ovarian carcinoma (RRID:CVCL_1628), OVCAR-8 ovarian carcinoma (RRID:CVCL_1629), , MCF-7 breast carcinoma (CRL-12584, RRID:CVCL_0031), MDA-MB-231 breast carcinoma (CRL-12532, RRID:CVCL_0062), NCI-H1876 small cell lung carcinoma (CRL-5902, RRID:CVCL_1503), NCI-H510A small cell lung carcinoma (HTB-184, RRID:CVCL_1565), NCI-H1417 (CRL-5869, RRID:CVCL_1469), and NCI-H196 small cell lung carcinoma (CRL-5823, RRID:CVCL_1509). Dr. Peter Houghton (Greehey Children's Cancer Research Institute, University of Texas Health Science Center, San Antonio, TX) provided Rh-18 rhabdomyosarcoma (RRID:CVCL_1659). Pooled donor human umbilical vein endothelial cells (HUVEC, Lonza, cat. CC-2519) and human mesenchymal stem cells (hMSC, Lonza, cat. PT-2501) were purchased from Lonza (Walkersville, MD).
Cell Culture. […]
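Also: compound exposure lasted seven days.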
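For viability, T/C in this document: 100% = DMSO vehicle control viability.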

Regarding `C#Cc1c(F)ccc2cc(O)cc(-c3ncc4c(N5CC6CCC(C5)N6)nc(OCC56CCCN5CC(F)C6)nc4c3F)c12` (stereo not drawn), the viability, T/C was 102% and 92.9% and 100% (compound 0.0316 µM); 101% and 80.2% and 97.7% (compound 0.1 µM); 93% and 86.2% and 90.3% (compound 0.316 µM); 106% and 74.9% and 95.2% (compound 1 µM); 117% and 85.7% and 91.6% (compound 3.16 µM); 109% and 66.4% and 75.8% (compound 10 µM). For the setting “curve of compound”, the half-inhibitory concentration (IC50) was over 10000 nM.

Take `C=C(F)C(=O)N1CCN(c2nc(OCC3CCCN3C)nc3c2CCN(c2cccc4cccc(Cl)c24)C3)CC1CC#N` (stereo not drawn): the viability, T/C was 92.1% and 101% and 100% (compound 0.0316 µM); 85.8% and 91.9% and 89.9% (compound 0.1 µM); 77.3% and 99.5% and 104% (compound 0.316 µM); 87.6% and 98.4% and 95.1% (compound 1 µM); 62.3% and 76.7% and 101% (compound 3.16 µM). Under “curve of compound”, the IC50 is 3970 nM and 4730 nM and 7910 nM.

For the molecule `C=CC(=O)N1CCN(c2nc(=O)n(-c3c(C)ccnc3C(C)C)c3nc(-c4c(O)cccc4F)c(F)cc23)C(C)C1` (stereo not drawn), the viability, T/C (compound 0.0316 µM) is 91.4% and 88.5% and 102%; the viability, T/C (compound 0.1 µM) was 97.5% and 109% and 89.4%; the viability, T/C (compound 0.316 µM) was 95.3% and 97% and 98%; the viability, T/C (compound 1 µM) is 90.4% and 101% and 97.3%; the viability, T/C (compound 3.16 µM) was 90.9% and 102% and 111%; the viability, T/C (compound 10 µM) was 79.6% and 97.6% and 109%. In addition, the half-inhibitory concentration (IC50) (curve of compound) is over 10000 nM.

For the molecule `CCN1C(C(=O)NC23CCC(C(=O)O)(CC2)CC3)C(c2cccc(Cl)c2F)C2(C(=O)Nc3cc(Cl)ccc32)C12CCCCC2` (stereo not drawn), the viability, T/C (compound 0.00949 µM) is 107% and 93.5%. For the same molecule, the IC50 by setting is: (compound alone, run of 10/11/2022) over 3000 nM; (curve of compound) over 3000 nM.

For `CCN1CCN(Cc2ccc(Nc3ncc(F)c(-c4cc(F)c5nc(C)n(C(C)C)c5c4)n3)nc2)CC1`, the viability, T/C by setting is: (compound 0.00316 µM) 90.5% and 99% and 71.9%; (compound 0.01 µM) 88.2% and 90.2% and 79.9%; (compound 0.0316 µM) 103% and 87.5% and 96.3%; (compound 0.1 µM) 99.7% and 97.4% and 104%; (compound 0.316 µM) 100% and 102% and 97%; (compound 1 µM) 112% and 121% and 102%. For the same molecule, for the setting “curve of compound”, the IC50 is over 1000 nM.

Regarding `CNC(C)C(=O)NC1CN(S(=O)(=O)c2cccc(S(=O)(=O)N3CCC4CCC(C(=O)NC(c5ccccc5)c5ccccc5)N4C(=O)C(NC(=O)C(C)NC)C3)c2)CCC2CCC(C(=O)NC(c3ccccc3)c3ccccc3)N2C1=O` (stereo not drawn), the viability, T/C reads like this: (compound 0.00316 µM) 94.7% and 94.4% and 79%; (compound 0.01 µM) 93.9% [middle of 14 runs]. Further, the IC50 runs as follows: (compound alone, run of 10/24/2022) over 1000 nM; (compound alone, run of 11/15/2022) over 1000 nM; (curve of compound) over 1000 nM.

In the case of `COc1c(OCCCN2CCOCC2)ccc2c3n(c(=NC(=O)c4cnc(N)nc4)nc12)CCN3`, the viability, T/C by setting is: (compound 0.00316 µM) 94.7% and 116% and 107%; (compound 0.01 µM) 91.3% and 98.9% and 106%; (compound 0.0316 µM) 77% and 76.2% and 90.4%; (compound 0.1 µM) 46.1% and 55.2% and 63.9%; (compound 0.316 µM) 41.3% and 42% and 43.8%; (compound 1 µM) 24.4% and 25.4% and 35.3%. In addition, the IC50 (curve of compound) is 105 nM and 175 nM and 217 nM.

Consider `Cc1c(S(C)(=O)=O)c(-c2cc(F)cc(N3CCN(c4ccc(NS(=O)(=O)c5ccc(NC(CCN6CCC(C(=O)OCCCP(=O)(O)O)CC6)CSc6ccccc6)c(S(=O)(=O)C(F)(F)F)c5)cc4)CC3)c2)c(-c2ccc(Cl)cc2)n1C(C)C` (stereo not drawn), for which the viability, T/C was 82.6% [middle of 14 runs] (compound 0.1 µM), 67.3% [middle of 14 runs] (compound 0.316 µM), 53.8% [middle of 14 runs] (compound 1 µM) and 45.4% [middle of 14 runs] (compound 10 µM).

Regarding `Cc1nc(N2CCC3(CC2)COC(C)C3N)c(CO)nc1Sc1ccnc(N)c1Cl` (stereo not drawn), the viability, T/C (compound 0.00949 µM) is 98.8% and 123% and 100%; the viability, T/C (compound 0.03 µM) is 104% and 119% and 120%; the viability, T/C (compound 0.0949 µM) was 112% and 104% and 89.2%; the viability, T/C (compound 0.3 µM) is 106% and 90.1% and 102%; the viability, T/C (compound 0.949 µM) is 99.9% and 85.1% and 77%; the viability, T/C (compound 3 µM) is 91.5% and 57.5% and 54.3%. The IC50 (curve of compound) was over 3000 nM.

For `Cn1ncnc1[C@H]1c2n[nH]c(=O)c3cc(F)cc(c23)N[C@@H]1c1ccc(F)cc1`, the viability, T/C by setting is: (compound 0.000316 µM) 84.4% and 103% and 99.8%; (compound 0.001 µM) 98% and 95.3% and 90.9%; (compound 0.00316 µM) 78.3% and 81.4% and 77%; (compound 0.01 µM) 87.9% and 86.6% and 89.3%; (compound 0.0316 µM) 69.3% and 101% and 82.6%; (compound 0.1 µM) 72.6% and 93.3% and 85.5%. Moreover, the IC50 (curve of compound) was over 100 nM.

Regarding `NC(=O)C(=Cn1cnc(-c2cc(C(F)(F)F)cc(C(F)(F)F)c2)n1)c1cncnc1`, the viability, T/C (compound 0.000949 µM) was 92.1% and 79.1% and 89.4%; the viability, T/C (compound 0.003 µM) is 94.4% and 79.8% and 83.2%; the viability, T/C (compound 0.00949 µM) is 89.3% and 86.5% and 108%; the viability, T/C (compound 0.03 µM) is 69.9% and 55.1% and 101%; the viability, T/C (compound 0.0949 µM) is 49.8% and 38% and 82.4%; the viability, T/C (compound 0.3 µM) was 49.2% and 25.1% and 59.7%. Under “curve of compound”, the IC50 was 136 nM and 41.3 nM and > 300 nM.

Take `NC1CCC(NC2CC2c2ccccc2)CC1` (stereo not drawn): the viability, T/C is 83.9% and 103% and 99% (compound 0.000316 µM); 81.5% and 83.9% and 100% (compound 0.001 µM); 99% and 87.2% and 107% (compound 0.00316 µM); 83.2% and 87% and 97.1% (compound 0.01 µM); 84.2% and 98.8% and 103% (compound 0.0316 µM); 77.9% and 70.9% and 91.6% (compound 0.1 µM). Moreover, the IC50 (curve of compound) is over 100 nM.

In the case of `O=C(c1cc(Cc2n[nH]c(=O)c3ccccc23)ccc1F)N1CCN(C(=O)C2CC2)CC1`, the viability, T/C is, setting by setting: (compound 0.0316 µM) 84.8% and 122% and 103%; (compound 0.1 µM) 109% and 93.1% and 107%; (compound 0.316 µM) 92.4% and 70.8% and 81.9%; (compound 1 µM) 79.6% and 91.7% and 83.5%; (compound 3.16 µM) 80.8% and 88.8% and 89.9%; (compound 10 µM) 59.2% and 60% and 83.6%. Further, under “curve of compound”, the IC50 is over 10000 nM.

For the molecule `O=C(c1ccc(F)c(F)c1Nc1ccc(I)cc1F)N1CC(O)([C@@H]2CCCCN2)C1`, the viability, T/C runs as follows: (compound 0.00316 µM) 108% and 99.4% and 97.4%; (compound 0.01 µM) 94.5% and 97% and 98.1%; (compound 0.0316 µM) 87.7% and 96.5% and 90.6%; (compound 0.1 µM) 107% and 102% and 72.1%; (compound 0.316 µM) 105% and 107% and 108%; (compound 1 µM) 49.5% and 60.2% and 114%. The IC50 (curve of compound) was 990 nM and > 1000 nM.
